pIC50: −log10 of the molar value. Values after ≈ are worked out from the molar mass of the structure shown.
How the values were obtained:
[1] = test system: Mycobacterium tuberculosis H37Rv; assay: Primary screen (Cycle 1): MIC, IC50, IC90 under aerobic conditions; assay type: cell-based
Mtb = test system: Mtb; design: method as in PMID 24268596; details: reported anti-TB activity of compound 1; cited from earlier work
Mycobacterium abscessus = assay: MIC, IC50, IC90 against nontuberculous mycobacteria (OD590); assay type: cell-based; details: Mycobacteroides abscessus, M. abscessus; for MIC: read-out: MIC
[2] = Cytotoxicity, THP-1 cell viability (CellTiter-Glo); details: human
M. tuberculosis H37Rv = assay: Cycle 2 repeat of MIC, IC50, IC90 under aerobic conditions (lower starting concentrations); assay type: cell-based, Mycobacterium tuberculosis; details: Mycobacterium tuberculosis, revaluation; for pIC50 / IC90: aerobic; for MIC: repeated at lower starting concentrations, read-out: MIC aerobic condition
[3] = test system: THP-1 cell line infected with Mtb; assay: Intracellular activity assay, luminescence; assay type: cell-based, Mycobacterium tuberculosis; details: Mycobacterium tuberculosis, Mtb-infected THP-1 cells, 72 h; for pIC50: read-out: IC50 intracell; for IC90: read-out: IC90 intracell
Description: Since the overall efficacy of any anti TB drug will be improved by its ability to traffic into the macrophage phagosome containing replicating bacteria, we evaluated the intracellular activity of compounds[24]. This was measured by using THP-1 cell line infected with Mtb. Infected cells were exposed to compounds for 72 h and viable bacterial counts were measured using luminescence as a measure of intracellular growth.
Assay (Promega) which uses ATP as an indicator of cell viability. Relative luminescent units (RLU) were measured using a Biotek Synergy 4 plate reader. The dose response curve was fitted using the Levenberg–Marquardt algorithm. The IC50 was defined as the compound […]
Intracellular Activity Assay
The activity of compounds against intracellular bacteria was determined by measuring viability in infected THP-1 cell after 3 days in the presence of test compounds. Compounds were prepared as 10-point three-fold serial dilutions in DMSO. The highest concentration of […]
THP-1 cells were cultured in complete RPMI and differentiated into macrophage-like cells using 80 nM PMA overnight at 37°C, 5% CO2. THP-1 cells were infected with a luminescent strain of H37Rv (which constitutively expresses luxABCDE) at a multiplicity of infection of 1 and incubated overnight at 37°C, 5% CO2. Infected cells were recovered using Accutase/EDTA solution, washed twice with PBS to remove extracellular bacteria and seeded into assay pates. Compound dilutions were added to a final DMSO concentration of 0.5%.
Assay plates were incubated for 72 h at 37°C, 5% CO2. Each run included isoniazid as a control. Relative luminescent units (RLU) were measured using a Biotek Synergy 2 plate reader. The dose response curve was fitted using the Levenberg–Marquardt algorithm. The […]
inhibition of growth respectively.
3. Cycle 3 – Absorption, distribution, metabolism, excretion and toxicity (ADMET)
3.1. Plasma Protein Binding Assay
Compounds were added to human plasma at a fixed concentration of 5 µM. The mixture was dialyzed in a RED device (Rapid Equilibrium Dialysis, Pierce) against PBS and incubated on an orbital shaker for 4 h at 37 °C. Aliquots from plasma and PBS sides were collected; an equal volume of PBS was added to the plasma sample, and an equal volume of plasma was added to the PBS sample. Three volumes of methanol (containing the internal binding standard propranolol) was added to precipitate the proteins and release the compound.
Each compound was tested in duplicate. Samples were centrifuged, the supernatant was […]

Mtb H37Rv = assay: LORA parallel plates, oxygen-deprived bacteria incubated under aerobic conditions (normal oxygen); assay type: cell-based, Mycobacterium tuberculosis; details: Mycobacterium tuberculosis, H37RV; for MIC: 120 h, oxygen-deprived bacteria, aerobic 5 d
Mycobacterium avium = assay: MIC against nontuberculous mycobacteria (Alamar blue); assay type: cell-based; details: M. avium
in vitro = details: human
[4] = In vitro microsomal stability assay; details: human, 1 μM, 37 °C
Source text: The stability of compound is expressed as a function of time[41]^,[42]
3.4. In vitro Microsomal Stability Assay
compound to detect NADPH-free degradation. Verapamil and dextromethorphan were
included as control compounds.

[5] = test system: human liver cells (HepG2); assay: HepG2 cytotoxicity (CellTiter-Glo); assay type: cell-based; details: read-out: IC50 (50% loss of viability), 72 h
[6] = M. tuberculosis H37Rv, aerobic conditions, primary screen
[7] = MIC value taken from the first MIC assay
[8] = Mycobacterium tuberculosis, M. tuberculosis H37Rv, aerobic conditions, primary screen

Compound: 4-[3-(4-Bromophenyl)-1-(ethoxycarbonyl)indolizine-7-yl)-1-(2-(4-methoxyphenyl)-2-oxoethyl)pyridine-1-ium bromide [Compound 6g]
- pIC50 [1, 6]: 4.46
- IC90 [1, 6]: 46 µM
- MIC [1, 6]: 50 µM

Compound: CCOC(=O)c1cc(C(=O)c2ccccc2)n2ccc(-c3cc[n+](CC(=O)c4ccc(OC)cc4)cc3)cc12 [Compound 1]
- IC90 (Mtb): 13.1 µM
- MIC (Mtb): 3.91 µM

Compound: CCOC(=O)c1cc(C(=O)c2ccccc2)n2ccc(-c3cc[n+](CC(=O)c4ccc(C)cc4)cc3)cc12.[Br-] [Compound 6a, 4-(3-Benzoyl-1-(ethoxycarbonyl)indolizine-7-yl)-1-(2-oxo-2-(p-tolyl)ethyl)pyridin-1-ium bromide]
- pIC50 (Mycobacterium abscessus): 4.62
- IC90 (Mycobacterium abscessus): 37 µM
- MIC (Mycobacterium abscessus): > 200 µM
- IC50 at 3 days [2]: 2.9 µM
- MIC [1, 7]: 14 µM
- pIC50 [1, 8]: 4.89
- IC90 [1, 8]: 15 µM
- MIC [1, 8]: 14 µM
- pIC50 (M. tuberculosis H37Rv): 4.92
- IC90 (M. tuberculosis H37Rv): 23 µM
- MIC (M. tuberculosis H37Rv): 22 µM
- pIC50 [3]: 5.28
- IC90 [3]: 15 µM
- pIC50 (Mtb H37Rv): 5.04
- IC90 (Mtb H37Rv): 42 µM
- MIC (Mtb H37Rv): 100 µM
- MIC (Mycobacterium avium): 50 µM
- MIC (Mycobacterium avium; Mycobacterium avium): 50 µM

Compound: CCOC(=O)c1cc(C(=O)c2ccccc2)n2ccc(-c3cc[n+](CC(=O)c4cccc(OC)c4)cc3)cc12 [Compound 6b, 4-(3-Benzoyl-1-(ethoxycarbonyl)indolizine-7-yl)-1-(2-(3-methoxyphenyl)-2-oxoethyl)pyridin-1-ium]
- melting point: 255 to 256 °C
- pIC50 [1, 8]: 4.41
- IC90 [1, 8]: > 50 µM
- MIC [1, 8]: > 50 µM

Compound: CCOC(=O)c1cc(C(=O)c2ccc(Cl)cc2)n2ccc(-c3cc[n+](CC(=O)c4cccc(OC)c4)cc3)cc12 [Compound 6d, 4-(3-(4-Chlorobenzoyl)-1-(ethoxycarbonyl)indolizine-7-yl)-1-(2-(3-methoxyphenyl)-2-oxoethyl)pyridin-1-ium]
- pIC50 (Mycobacterium abscessus): 4.09
- IC90 (Mycobacterium abscessus): 150 µM
- MIC (Mycobacterium abscessus): > 200 µM
- melting point: 252 to 254 °C
- MIC [1, 7]: 15 µM
- pIC50 [1, 8]: 4.85
- IC90 [1, 8]: 16 µM
- MIC [1, 8]: 15 µM
- pIC50 (M. tuberculosis H37Rv): 4.92
- IC90 (M. tuberculosis H37Rv): 17 µM
- MIC (M. tuberculosis H37Rv): 14 µM
- pIC50 [3]: 4.96
- IC90 [3]: > 50 µM
- pIC50 (Mtb H37Rv): 4.77
- IC90 (Mtb H37Rv): 27 µM
- MIC (Mtb H37Rv): 43 µM
- MIC (Mycobacterium avium; Mycobacterium avium): 200 µM
- IC50 at 3 days (in vitro): 3.9 µM

Compound: CCOC(=O)c1cc(C(=O)c2ccc(Cl)cc2)n2ccc(-c3cc[n+](CC(=O)c4ccc(F)cc4)cc3)cc12 [Compound 6e, 4-(3-(4-Chlorobenzoyl)-1-(ethoxycarbonyl)indolizine-7-yl)-1-(2-(4-fluorophenyl)-2-oxoethyl)pyridin-1-ium bromide]
- pIC50 [1, 8]: < 4.00
- IC90 [1, 8]: > 100 µM
- MIC [1, 8]: > 100 µM

Compound: CCOC(=O)c1cc(C(=O)c2ccc(Br)cc2)n2ccc(-c3cc[n+](CC(=O)c4ccc(C)cc4)cc3)cc12.[Br-] [Compound 6f, 4-(3-(4-Bromobenzoyl)-1-(ethoxycarbonyl)indolizine-7-yl)-1-(2-oxo-2-(p-tolyl)ethyl)pyridin-1-ium bromide]
- melting point: 283 to 284 °C
- pIC50 [1, 8]: 4.89
- IC90 [1, 8]: 19 µM
- MIC [1, 8]: 20 µM

Compound: CCOC(=O)c1cc(C(=O)c2ccc(Br)cc2)n2ccc(-c3cc[n+](CC(=O)c4cccc(OC)c4)cc3)cc12 [Compound 6h, 4-(3-(4-Bromobenzoyl)-1-(ethoxycarbonyl)indolizine-7-yl)-1-(2-(3-methoxyphenyl)-2-oxoethyl)pyridin-1-ium]
- pIC50 (Mycobacterium abscessus): < 3.70
- IC90 (Mycobacterium abscessus): > 200 µM
- MIC (Mycobacterium abscessus): > 200 µM
- melting point: 256 to 259 °C
- MIC [1, 7]: 14 µM
- pIC50 [1, 8]: 4.89
- IC90 [1, 8]: 14 µM
- MIC [1, 8]: 14 µM
- pIC50 (M. tuberculosis H37Rv): 4.82
- IC90 (M. tuberculosis H37Rv): 26 µM
- MIC (M. tuberculosis H37Rv): 27 µM
- pIC50 [3]: 4.89
- IC90 [3]: 43 µM
- pIC50 (Mtb H37Rv): 4.80
- IC90 (Mtb H37Rv): 24 µM
- MIC (Mtb H37Rv): 38 µM
- MIC (Mycobacterium avium; Mycobacterium avium): 200 µM
- IC50 at 3 days (in vitro): 3.8 µM

Compound: CCOC(=O)c1cc(C(=O)c2ccc(Br)cc2)n2ccc(-c3cc[n+](CC(=O)c4ccc(Cl)cc4)cc3)cc12 [Compound 6j]
- pIC50 [1, 8]: < 3.70
- IC90 [1, 8]: > 200 µM
- MIC [1, 8]: > 200 µM

Compound: CCOC(=O)c1cc(C(=O)c2ccc(C)cc2)n2ccc(-c3cc[n+](CC(=O)c4ccc([N+](=O)[O-])cc4)cc3)cc12 [Compound 6k]
- pIC50 [1, 8]: 3.70
- IC90 [1, 8]: > 200 µM
- MIC [1, 8]: > 200 µM

Compound: CCOC(=O)c1cc(C(=O)c2ccc(OC)cc2)n2ccc(-c3cc[n+](CC(=O)c4ccc(Br)cc4)cc3)cc12 [Compound 6l]
- pIC50 [1, 8]: < 3.70
- IC90 [1, 8]: > 200 µM
- MIC [1, 8]: > 200 µM

Compound: COc1ccc2c(c1)[C@]13CCCC[C@@H]1[C@H](C2)N(C)CC3 [Dextromethorphan, reference compound]
- microsomal CLint at 1 μM ([4]; s9, NADPH-dependent CLint): 24.3 µL/min/mg
- half-life at 1 μM ([4]; s9, NADPH-dependent T1/2, Human): 1.58 h
- microsomal CLint at 1 μM ([4]; s9, NADPH-free CLint): < 12.8 µL/min/mg
- half-life at 1 μM ([4]; s9, NADPH-free T1/2, Human): > 3 h

Compound: NNC(=O)c1ccncc1 [Isoniazid, reference compound]
- pIC50 [3]: 6.74
- IC90 [3]: 0.27 µM

Compound: Cc1ncc([N+](=O)[O-])n1CCO [Metronidazole, reference compound]
- pIC50 (Mtb H37Rv): < 3.70
- IC90 (Mtb H37Rv): > 200 µM
- MIC (Mtb H37Rv): > 200 µM

Compound: CO[C@H]1/C=C/O[C@@]2(C)Oc3c(C)c(O)c4c(O)c(c(/C=N/N5CCN(C)CC5)c(O)c4c3C2=O)NC(=O)/C(C)=C\C=C\[C@H](C)[C@H](O)[C@@H](C)[C@@H](O)[C@@H](C)[C@H](OC(C)=O)[C@@H]1C [Rifampicin, reference compound]
- pIC50 (Mycobacterium abscessus): 5.64
- IC90 (Mycobacterium abscessus): 3.6 µM
- MIC (Mycobacterium abscessus): 3.6 µM (≈ 2.96 µg/mL)
- pIC50 [1, 8]: 8.44
- IC90 [1, 8]: 0.0071 µM
- MIC [1, 8]: 0.0065 µM (≈ 0.00535 µg/mL)
- pIC50 (M. tuberculosis H37Rv): 8.37
- IC90 (M. tuberculosis H37Rv): 0.0092 µM
- MIC (M. tuberculosis H37Rv): 0.0071 µM (≈ 0.00584 µg/mL)
- pIC50 (Mtb H37Rv): 8.24
- IC90 (Mtb H37Rv): 0.011 µM
- MIC (Mtb H37Rv): 0.021 µM (≈ 0.0173 µg/mL)
- MIC (Mycobacterium avium; Mycobacterium avium): 0.098 µM (≈ 0.0806 µg/mL)

Compound: CN[C@@H]1C[C@H]2O[C@@](C)([C@@H]1OC)n1c3ccccc3c3c4c(c5c6ccccc6n2c5c31)C(=O)NC4 [Staurosporine, reference compound]
- pIC50 [5]: 8.07
